One compound from paper PMC8308585, “Design and Synthesis of Novel Thiazolo[5,4-d]pyrimidine Derivatives with High Affinity for Both the Adenosine A1 and A2A Receptors, and Efficacy in Animal Models of Depression” (Pharmaceuticals, 2021) can be followed below.

Molecules are shown by their SMILES.

Experiment [1] concerns the target T1, hA2A AR (Homo sapiens, UniProt P29274).
T1 construct: expressed in transfected cells; host or cells: CHO cells
As to the kind of experiment: Inhibition of NECA-induced increase of cAMP in CHO cells expressing hA2A AR (GloSensor cAMP assay). In kind it is cell-based. The following applies: inhibition of NECA-stimulated adenylyl cyclase activity, mean ± standard error. As to the method:
(§1) Compound 18 was also tested to evaluate its antagonist behavior at the hA1 AR by assessing its ability to counteract NECA-induced decrease of cAMP accumulation.
(§2) The intrinsic activity of understudy compounds was evaluated through the GloSensor cAMP assay, as described previously. Briefly, cells stably expressing the hA1, hA2A, and hA2B ARs and the biosensor were incubated for 2 h at rt in equilibration medium containing 3% v/v GloSensor cAMP reagent stock solution, 10% FBS, and 87% CO2 independent medium. Afterward, cells were dispensed in the wells of a 384-well plate and the reference agonist NECA or the compounds, at different concentrations, were tested. The antagonist profile of compounds was evaluated by assessing their ability to counteract NECA-induced increase (A2A and A2B ARs) or decrease (A1 AR) of cAMP accumulation. Responses were expressed as percentage of the maximal relative luminescence units (RLU).
(§3) Binding data and concentration–response curves were fitted by a nonlinear regression with the Prism program (GraphPAD Prism 7 Software, San Diego, CA, USA). Each concentration was tested 3–5 times in duplicate and the Ki or IC50 (the concentration of antagonists that produces 50% inhibition of the agonist effect) values are given as the mean ± standard error (S.E.).

Experiment [2] relates to mice. As to the kind of experiment: Forced swimming test. Format: in vivo, mouse. Particulars: for Immobility Time: mouse FST, single dose 26 min before test, last 4 min of 6 min, mean ± SEM of 10 mice, vehicle 193.7 ± 8.9. Here is the method: To execute the tests, mice were divided into groups, each of which consisted of 10 animals. The tests were performed after a single p.o. administration of compound 18 at different dosages (10 mg Kg^−1 and 30 mg Kg^−1). Amitriptyline (15 mg Kg^−1) was used as the reference drug. Compounds were acutely administrated 26 min before the beginning of the experiment. In the FST (Table 4), the duration of immobility was recorded during the last 4 min of the 6 min test.
Male CD-1 albino mice (22–25 g; Envigo, Varese, Italy) were housed in CeSAL (Centro Stabulazione Animali da Laboratorio, University of Florence, Florence, Italy) and used at least one week after their arrival. Animals were housed in 26 cm × 41 cm cages (12 mice each) and fed with a standard laboratory diet and tap water ad libitum. They were kept at 23 ± 1 °C with a 12 h light/dark cycle, light at 7 a.m. Compound 18 was administered per o.s. whereas amitriptyline was by a s.c. route following the most widely used approach reported in the literature.
Mice were individually placed into glass cylinders (height: 25 cm, diameter: 10 cm) containing 12 cm of water maintained at 22–23 °C for 6 min. Immobility was considered the animal floated in the water, in an upright position, and made only small movements to keep its head above water. The immobility time was recorded during the last 4-min of the 6-min test. A decrease in the duration of immobility is indicative of an antidepressant-like effect.
Behavioral tests were performed by visual observation by researchers blinded to the treatments. Results were expressed as means ± SEM, variance was analyzed by ANOVA. A Bonferroni’s significant difference procedure was used as post-hoc comparison. p values of less than 0.05 and 0.01 were considered significant. Data were analyzed using the “Origin 8.1” software.

Experiment [3] addresses T2, human A1 AR (Homo sapiens, UniProt P30542).
T2 construct: expressed in transfected cells; host or cells: CHO cells
T2 sequence (P30542 1-326): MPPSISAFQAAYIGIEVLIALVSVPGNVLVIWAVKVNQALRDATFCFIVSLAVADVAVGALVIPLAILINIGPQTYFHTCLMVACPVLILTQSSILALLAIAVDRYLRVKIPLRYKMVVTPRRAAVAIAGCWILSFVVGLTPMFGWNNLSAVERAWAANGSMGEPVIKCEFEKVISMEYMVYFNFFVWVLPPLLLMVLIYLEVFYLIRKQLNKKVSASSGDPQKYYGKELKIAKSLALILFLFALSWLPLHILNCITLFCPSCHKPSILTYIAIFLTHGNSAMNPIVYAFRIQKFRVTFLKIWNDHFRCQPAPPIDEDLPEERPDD
As to the kind of experiment: Radioligand binding, displacement of [3H]-CCPA at hA1 AR in CHO cells. The following applies: displacement of specific [3H]-CCPA binding, n = 3–6, mean ± SEM.
Protocol: CHO cells, stably expressing hARs, were grown adherently and maintained in Dulbecco’s modified Eagle’s medium (DMEM) with nutrient mixture F12 supplemented with 10% fetal bovine serum (FBS), penicillin (100 µg/mL), streptomycin (100 µg/mL), sodium pyruvate (1 mM), and geneticin (0.1 mg/mL).
Briefly, cells were homogenized in cold lysis buffer (5 mM Tris HCl, 2 mM EDTA, pH 7.4), centrifuged at low speed spin for 10 min, and subsequently, the supernatant was spun at 37,000 rpm. Membrane pellet was resuspended in the specific buffer and stored at −80 °C.
The binding affinity of the novel compounds was evaluated using radioligand competition experiments in CHO cells stably transfected with hA1 AR, hA2A AR, and hA3 AR subtypes.

Experiment [4] concerns the target T3, hA1 AR (Homo sapiens, UniProt P30542).
T3 construct: expressed in transfected cells; host or cells: CHO cells
T3 sequence (P30542 1-326): T2 sequence (P30542 1-326)
As to the kind of experiment: Counteraction of NECA-induced decrease of cAMP in CHO cells expressing hA1 AR (GloSensor cAMP assay). Particulars: NECA-stimulated activity in CHO cells expressing hA1 AR, mean ± standard error. In kind it is cell-based. As to the method:
as §1, §2, §3

T1 sequence (P29274 whole entry): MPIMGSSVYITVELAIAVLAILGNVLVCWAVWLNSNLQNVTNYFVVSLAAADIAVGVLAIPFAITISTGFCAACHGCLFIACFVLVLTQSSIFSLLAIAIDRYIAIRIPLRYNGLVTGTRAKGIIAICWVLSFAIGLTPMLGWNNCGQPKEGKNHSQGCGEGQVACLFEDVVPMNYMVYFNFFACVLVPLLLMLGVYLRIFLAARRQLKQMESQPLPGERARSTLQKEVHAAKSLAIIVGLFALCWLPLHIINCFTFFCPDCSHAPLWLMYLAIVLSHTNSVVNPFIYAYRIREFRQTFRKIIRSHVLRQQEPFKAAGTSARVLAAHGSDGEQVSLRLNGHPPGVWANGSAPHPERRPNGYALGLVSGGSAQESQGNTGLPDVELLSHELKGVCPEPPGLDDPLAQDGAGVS

With `Nc1nc(-c2ccco2)nc2sc(Cc3ccccc3F)nc12` [compound 18, 2-(2-Fluorobenzyl)-5-(furan-2-yl)thiazolo[5,4-d]pyrimidin-7-amine], the results for the IC50 in experiment [1] and in experiment [4] were 14 ± 3.4 nM and 360 nM, respectively. In addition, the “Immobility Time” value came out at 184.7 ± 5.6 s in experiment [2] (10 mg kg^−1 p.o.) and 143.5 ± 9.1 s in experiment [2] (30 mg kg^−1 p.o.). Further, the “Antidepressant-like effect in FST (in words)” value in experiment [2] (mouse, 10 and 30 mg Kg^−1 p.o., vs amitriptyline 15 mg Kg^−1) was “dose-dependently induced an antidepressant-like effect comparable to that induced by the clinically used drug amitriptyline”. This compound had a Ki in experiment [3] of 1.9 ± 0.08 nM.
